The subject of test [1] is Matrix protein 2 (Influenza A virus), P06821 [V27A]. Put plainly: Inhibition of Influenza A Virus M2 proton channel V27A mutant expressed in Xenopus laevis oocytes at 100 uM after 2 mins by two-electrode patch clamp assay. The test is classed as cell-based. Particulars: Oocyte.
Test [2] relates to Matrix protein 2 (Influenza A virus), P06821 [withheld]. Description: Inhibition of Influenza A Virus M2 proton channel S31N mutant expressed in Xenopus laevis oocytes at 100 uM after 2 mins by two-electrode patch clamp assay. The test is classed as cell-based. Particulars: Oocyte.

`NC1C2C3CC4C1C1C2CC3C41` (stereo not given): the inhibition in test [1] was less than 15%; in test [2], 33%.

Turning to `NC12CC3CCC(CC(C3)C1)C2`, the results for the inhibition in test [1] and in test [2] were less than 15% and 33%, respectively.

Turning to `NC12CC3CC(C1)CC(CO)(C3)O2`, the inhibition in test [1] was less than 15%; in test [2], 33%.

Consider `OC12CC3CC(CC(C3)C1)C2`, for which the inhibition is less than 15% in test [1] and 33% in test [2].

In the case of `CC1(O)C2CC3CC(C2)CC1C3` (stereo not given), the values for the inhibition in test [1] and in test [2] were less than 15% and 33%, respectively.

For `NC1CC2CC1C1CCCC21` (stereo not given), the figures for the inhibition in test [1] and in test [2] were less than 15% and 33%, respectively.

For the molecule `O=C1CC2(CCCCC2)CC(=O)N1`, the figures for the inhibition in test [1] and in test [2] were less than 15% and 33%, respectively.

With `N=C(N)NC12CC3CC(CC(C3)C1)C2`, the inhibition in test [1] was less than 15%; in test [2] it was 33%.

In the case of `OC1CC2C3CCC(C3)C2C1O` (stereo not given), the results for the inhibition in test [1] and in test [2] were less than 15% and 33%, respectively.

On to `N=C(N)NCC12CC3CCC(CC(C3)C1)C2`, for which the results for the inhibition in test [1] and in test [2] were less than 15% and 33%, respectively.

For `N=C(N)NC(=N)NC12CC3CC(CC(C3)C1)C2`, the inhibition is less than 15% in test [1] and 33% in test [2].

In the case of `C1CC2CCC1CNC2`, the inhibition is less than 15% in test [1] and 33% in test [2].

Turning to `CC(C)(C)c1ccc(CN)cc1`, the figures for the inhibition in test [1] and in test [2] were less than 15% and 33%, respectively.

As for `CC12CC3(O)CC1(C)CC3(O)C2`, the figures for the inhibition in test [1] and in test [2] were less than 15% and 33%, respectively.

Regarding `OC1C2C3CC4C1C1C2CC3C41` (stereo not given), the results for the inhibition in test [1] and in test [2] were less than 15% and 33%, respectively.

For the molecule `N=C(N)C12CC3CC(CC(C3)C1)C2`, the figures for the inhibition in test [1] and in test [2] were less than 15% and 33%, respectively.

As for `NOC12CC3CC(CC(C3)C1)C2`, the inhibition in test [1] is less than 15%; in test [2] it was 33%.

As for `NN1CCC2(CCCCC2)CC1`, the inhibition in test [1] is less than 15%; in test [2] it was 33%.

Consider `NN1C(=O)CC2(CCCCC2)CC1=O`, for which the inhibition was less than 15% in test [1] and 33% in test [2].

Consider `N=C(NO)C12CC3CC(CC(C3)C1)C2`, for which the inhibition in test [1] was less than 15%; in test [2], 33%.

With `NC1Cc2ccccc2C1`, the inhibition in test [1] was less than 15%; in test [2], 33%.

As for `OC1C2C3CC4C2C(O)C2C1C3C42` (stereo not given), the inhibition was less than 15% in test [1] and 33% in test [2].

`C1NC2CC3CC1CC(C3)C2`: the inhibition in test [1] was less than 15%; in test [2], 33%.

Consider `NC1C2C3CC4C2C(O)C2C1C3C42` (stereo not given), for which the figures for the inhibition in test [1] and in test [2] were less than 15% and 33%, respectively.

In the case of `NC(CO)C12CC3CC(CC(C3)C1)C2` (stereo not given), the inhibition in test [1] turned out to be 4%; in test [2], 15%.

As to `NC1CCC2(CCCCC2)CC1`, the inhibition is less than 15% in test [1] and 33% in test [2].

As to `C1CC2CC1C1CNCC21` (stereo not given), the figures for the inhibition in test [1] and in test [2] were less than 15% and 33%, respectively.

As to `CC1(C)C(N)C1(C)C`, the inhibition in test [1] is less than 15%; in test [2], 33%.

For the molecule `NC12CC3CC(CC(C3)C1)C2`, the inhibition is 0% in test [1] and 35% in test [2].

In the case of `O=S(=O)(O)C12CC3CC(CC(C3)C1)C2`, the inhibition was less than 15% in test [1] and 33% in test [2].

In the case of `NC1C2CC3CC(C2)CC1C3` (stereo not given), the inhibition is less than 15% in test [1] and 33% in test [2].

Take `NNC1CCC2(CCCCC2)CC1`: the inhibition in test [1] is less than 15%; in test [2], 33%.

In the case of `CC(C)(C)CC(C)(C)N`, the inhibition was less than 15% in test [1] and 33% in test [2].

In the case of `C1CCC2(CC1)CCNCC2`, the inhibition in test [1] was less than 15%; in test [2], 33%.

With `C1CC2CC1C1CNC21` (stereo not given), the inhibition is less than 15% in test [1] and 33% in test [2].

`NC12CCC3CC(CC(C3)C1)C2`: the inhibition was less than 15% in test [1] and 33% in test [2].

Consider `O=C1C2CC3CC(C2)CC1C3`, for which the results for the inhibition in test [1] and in test [2] were less than 15% and 33%, respectively.

On to `OC1CCC(C2CC3CCC2C3)CC1O` (stereo not given), for which the inhibition in test [1] was less than 15%; in test [2], 33%.

On to `NC12CC3CC(C1)CC(O)(C3)C2`, for which the inhibition in test [1] is less than 15%; in test [2], 33%.

As for `NC(=O)C12CC3CC(CC(C3)C1)C2`, the inhibition in test [1] is less than 15%; in test [2], 33%.
